{"source": "paper PMC4929558", "about": "“A novel AhR ligand, 2AI, protects the retina from environmental stress” (Scientific Reports, 2016)", "key": {"[1]": {"target": "T1, human AhR protein (humanized AhR liver cytosol) (Homo sapiens, UniProt P35869)", "T1 construct": "human AhR expressed in liver of humanized transgenic mice, B6.Cg-Ahr^tm3.1Bra Tg (Alb-cre, Ttr-AhR)1GHP; hepatic cytosol, not purified", "T1 sequence (P35869 11-848)": "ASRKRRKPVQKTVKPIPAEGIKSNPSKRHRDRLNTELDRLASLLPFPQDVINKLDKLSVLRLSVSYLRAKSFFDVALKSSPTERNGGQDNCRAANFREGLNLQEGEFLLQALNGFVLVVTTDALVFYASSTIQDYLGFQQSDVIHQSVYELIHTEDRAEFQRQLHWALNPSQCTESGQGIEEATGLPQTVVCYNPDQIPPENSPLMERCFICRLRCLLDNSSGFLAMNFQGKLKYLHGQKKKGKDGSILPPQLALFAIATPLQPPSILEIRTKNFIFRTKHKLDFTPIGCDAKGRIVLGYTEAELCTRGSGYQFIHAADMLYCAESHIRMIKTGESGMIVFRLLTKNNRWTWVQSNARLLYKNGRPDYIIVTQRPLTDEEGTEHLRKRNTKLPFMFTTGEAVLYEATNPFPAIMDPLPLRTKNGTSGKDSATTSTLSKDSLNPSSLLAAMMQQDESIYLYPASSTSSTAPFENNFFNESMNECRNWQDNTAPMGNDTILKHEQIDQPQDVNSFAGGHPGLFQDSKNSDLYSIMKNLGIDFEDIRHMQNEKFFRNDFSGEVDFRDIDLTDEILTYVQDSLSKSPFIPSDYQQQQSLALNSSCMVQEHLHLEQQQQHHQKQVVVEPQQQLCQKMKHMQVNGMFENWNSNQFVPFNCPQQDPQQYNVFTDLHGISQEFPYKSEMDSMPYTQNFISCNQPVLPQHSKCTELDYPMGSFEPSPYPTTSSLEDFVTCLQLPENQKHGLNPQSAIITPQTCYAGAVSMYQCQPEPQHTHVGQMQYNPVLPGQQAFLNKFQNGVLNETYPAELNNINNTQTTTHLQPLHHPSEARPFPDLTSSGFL", "assay": "photoaffinity ligand competition, hepatic cytosol", "format": "binding", "settings": "competition with 2-azido-3-[125I]iodo-7,8-dibromodibenzo-p-dioxin (0.21 pmol, saturating), 150 μg liver protein, room temperature 20 min, then UV 402 nm"}, "[2]": {"target": "T2, AhR (XRE-luciferase reporter assay) (Homo sapiens, UniProt P35869)", "T2 construct": "with Aryl hydrocarbon receptor nuclear translocator", "T2 sequence (P35869 11-848)": "T1 sequence (P35869 11-848)", "assay": "XRE-luciferase reporter assay in cells", "format": "cell-based", "settings": "agonist"}, "[3]": {"target": "T1, human AhR protein (humanized AhR liver cytosol)", "assay": "photoaffinity labelling, SDS-PAGE, gamma counting", "format": "binding", "settings": "labelled compound; covalent after UV photolysis; 0.21 pmol per tube, 150 μg liver protein"}}, "data": [{"molecule": "Nc1ccccc1-c1cc2ccccc2[nH]1", "note": "[2AI]", "values": [{"measurement": "% photoaffinity label bound", "setting": "[1]", "value": "2AI was able to out-compete the photoaffinity label bound to the human AhR protein"}, {"measurement": "EC50", "setting": "[2]", "value": 3.5, "unit": "µM"}]}, {"molecule": "[N-]=[N+]=Nc1cc2c(cc1I)Oc1cc(Br)c(Br)cc1O2", "note": "[PAL, 2-azido-3-[125I]iodo-7,8-dibromodibenzo-p-dioxin]", "values": [{"measurement": "photoaffinity labelling, SDS-PAGE, gamma counting", "setting": "[3]", "value": "Labeled AHR bands were excised and counted using a γ counter"}]}]}
